Read-outs that look alike come from different tables or passages of the source.
Key:
[1] = tested on: P. falciparum infected erythrocytes; test: Blood stages activity, [3H]hypoxanthine incorporation method; assay type: cell-based; conditions: Plasmodium falciparum, Erythrocyte; whole cell activity; read-out: WC IC50
Procedure: The sensitivity of P. falciparum infected erythrocytes to the compound was determined using the [3H]hypoxanthine incorporation method with an inoculum of 0.5% parasitemia (ring stage) and 2% hematocrit. The parasites were grown in RPMI 1640, 25 mM HEPES and supplemented with 5% Albumax. Plates are incubated at 37° C., 5% CO2, 5% O2, 90% N2. After 24 h of incubation, [3H]hypoxanthine is added and plates are incubated for another 24 h. After that period, plates are harvested on a glass fiber filter using a TOMTEC Cell harvester 96. Filters are dried and melt on scintillator sheets and the bound radioactivity is quantified by use of a Wallac Microbeta Trilux (Model 1450 LS-Perkin Elmer). IC50s are determined using Grafit 7 program (Grafit program; Erithacus Software, Horley, Surrey, United Kingdom).

[2] = molecular target: T1, cytochrome bc1 of mitochondria isolated from human cells (HEK293) (Homo sapiens, UniProt P00156); test: Enzymatic bc1 inhibition, cytochrome c reductase activity, human mitochondria; assay type: biochemical; conditions: for IC50: activity in the human target, read-out: Hbc1 IC50; for Tox window selectivity index: human bc1 vs P. falciparum bc1
T1 construct: endogenous in cells; host or cells: HEK293 (isolated mitochondria)
Procedure: (§1) For cytochrome bc1 experiments, mitochondria were isolated as follows: parasitized erythrocytes were harvested by centrifugation and lysed with 0.05% (w/v) saponin in RPMI. Then parasites were washed three times with H-medium (0.07 M sucrose, 0.21 M mannitol, 1 mM EGTA, 5 mM MgCl2, 5 mM KH2PO4, and 4 mM HEPES, pH 7.4) and resuspended in the same medium in the presence of 1 mM PMSF and protease inhibitor cocktail (Roche Complete). Parasites were disrupted by N2 cavitation (4639 Cell disruption Bomb, Parr Instrument, Moline, IL, USA) at 1600 psi for 25 min at 4° C. Unbroken cells and cell debris were removed by centrifugation at 1,200×g for 10 min at 4° C. The mitochondrial fraction was pelleted at 10,000×g for 20 min at 4° C. The mitochondrial pellet was gently resuspended in 0.8 M sucrose, 1 mM EDTA, 10 mM Tris-HCl PH 7.4, and 0.1% BSA prior to separation on a 1-2 M sucrose gradient. The sample was centrifuged on a gradient at 80,000×g for 2 hr at 4° C. The mitochondria were then recovered and washed with 1 mM EDTA, 10 mM Tris-HCL pH 7.4 to remove sucrose, and resuspended in H-medium with protease inhibitor cocktail and 1 mM PMSF. Samples were stored at −80° C. until use. In the case of human mitochondria, HEK293 human cell line was used as starting material. Cells were pelleted at 400×g 10 min and disrupted by N2 cavitation. Mitochondria then were isolated using the method described above. Cytochrome c reductase activity was assayed by a modification of the method of Fry and Pudney, Biochem. Pharmacol., 43 (1992), pp. 1545-1553. Mitochondria (40 μg/ml) were diluted in reaction buffer (250 mM sucrose, 50 mM KH2PO4, 0.2 mM EDTA, 1 mM NaN3, and 2.5 mM KCN) containing 50 μM cytochrome c. Reactions were started by addition of 25 μM decylubiquinol and monitored by reduction of cytochrome c at 550 nm. To assure the linearity of the enzymatic reaction only data from the first 60 s were collected. Decylubiquinol substrate was prepared by reducing decylubiquinone (Sigma-Aldrich, St. Louis, MO, USA) in ethanol with sodium borohydride. Decylubiquinol was aliquoted and stored in acidified ethanol at −80° C. Inhibition of bc1 activity on mitochondria isolated from human parasites (P. falciparum 3D7A), rodent parasites (P. berghei ANKA) and human cells (HEK293).

P. falciparum 3D7A = test: Panel of P. falciparum strains: 3D7A; assay type: cell-based; conditions: Plasmodium falciparum, read-out: IC50 (mean μM ± SD) 3D7A
P. falciparum Dd2 = test: Panel of P. falciparum strains: Dd2; assay type: cell-based; conditions: strain Dd2
P. falciparum FCR3 = test: Panel of P. falciparum strains: FCR3; assay type: cell-based; conditions: strain FCR3
P. falciparum Tm90C2A = test: Panel of P. falciparum strains: Tm90C2A; assay type: cell-based; conditions: strain Tm90C2A
P. falciparum Tm90C2B = assay type: cell-based; conditions: strain Tm90C2B
[3] = molecular target: T2, cytochrome bc1 of mitochondria isolated from human parasites (P. falciparum 3D7A) (Plasmodium falciparum, UniProt Q02768); test: Enzymatic bc1 inhibition, cytochrome c reductase activity, P. falciparum mitochondria; assay type: biochemical
T2 construct: endogenous in cells; host or cells: P. falciparum 3D7A parasites from parasitized erythrocytes (isolated mitochondria)
Procedure: as §1

[4] = activity in the P. falciparum target, read-out: p.fbc1 IC50

T2 sequence (Q02768 whole entry): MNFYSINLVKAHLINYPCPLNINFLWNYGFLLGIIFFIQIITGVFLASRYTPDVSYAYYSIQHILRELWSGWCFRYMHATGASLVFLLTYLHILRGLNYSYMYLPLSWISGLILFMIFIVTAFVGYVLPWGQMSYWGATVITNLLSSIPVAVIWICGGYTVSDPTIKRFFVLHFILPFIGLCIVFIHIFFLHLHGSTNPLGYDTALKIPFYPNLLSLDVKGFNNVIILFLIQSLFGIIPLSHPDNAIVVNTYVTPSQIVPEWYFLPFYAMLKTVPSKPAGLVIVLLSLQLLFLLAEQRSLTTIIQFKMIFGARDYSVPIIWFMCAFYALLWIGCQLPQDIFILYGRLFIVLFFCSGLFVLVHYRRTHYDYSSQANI

Cc1[nH]c2sc3cc(-c4ccc(CN(C)C5CCN(Cc6ccc(OC(F)(F)F)cc6)CC5)cc4)ccc3c2c(=O)c1Cl [Example 7, 3-chloro-2-methyl-7-(4-((methyl(1-(4-(trifluoromethoxy)benzyl)piperidin-4-yl)amino)methyl)phenyl)benzo[4,5]thieno[2,3-b]pyridin-4(1H)-one 2,2,2-trifluoroacetate]
IC50 [1]: 121 nM
IC50 [2]: > 10000 nM

CCc1nc(N)nc(N)c1-c1ccc(Cl)cc1 [Pyrimethamine]
IC50 (P. falciparum 3D7A; strain 3D7A): 0.032 ± 0.001 µM
Pf IC50 Ratio vs Pf IC50 3D7, Dd2 (P. falciparum Dd2): >312
Pf IC50 Ratio vs Pf IC50 3D7, FCR3 (P. falciparum FCR3): 3
Pf IC50 Ratio vs Pf IC50 3D7, Tm90C2A (P. falciparum Tm90C2A): >312
Pf IC50 Ratio vs Pf IC50 3D7, Tm90C2B (P. falciparum Tm90C2B): >88

C[C@H]1[C@@H](O)O[C@@H]2O[C@@]3(C)CC[C@H]4[C@H](C)CC[C@@H]1[C@@]24OO3 [Dihydroartemisinine]
IC50 (P. falciparum 3D7A; strain 3D7A): 0.004 ± 0.0001 µM
Pf IC50 Ratio vs Pf IC50 3D7, Dd2 (P. falciparum Dd2): 1
Pf IC50 Ratio vs Pf IC50 3D7, FCR3 (P. falciparum FCR3): 1
Pf IC50 Ratio vs Pf IC50 3D7, Tm90C2A (P. falciparum Tm90C2A): 1
Pf IC50 Ratio vs Pf IC50 3D7, Tm90C2B (P. falciparum Tm90C2B): 1

Cc1[nH]c2sc3cc(-c4ccccc4OC(F)(F)F)ccc3c2c(=O)c1Cl [Example 4, 3-chloro-2-methyl-7-(2-(trifluoromethoxy)phenyl)benzo[4,5]thieno[2,3-b]pyridin-4(1H)-one]
IC50 [1]: 0.732 nM
IC50 [2]: 1560 nM
Tox window selectivity index [2]: 1625
IC50 [3, 4]: 0.96 nM

CCN(CC)CCCC(C)Nc1ccnc2cc(Cl)ccc12 (centres unmarked) [Chloroquine]
IC50 (P. falciparum 3D7A): 0.029 ± 0.006 µM
Pf IC50 Ratio vs Pf IC50 3D7, Dd2 (P. falciparum Dd2): >7
Pf IC50 Ratio vs Pf IC50 3D7, FCR3 (P. falciparum FCR3): >7
Pf IC50 Ratio vs Pf IC50 3D7, Tm90C2A (P. falciparum Tm90C2A): >7
Pf IC50 Ratio vs Pf IC50 3D7, Tm90C2B (P. falciparum Tm90C2B): >14

Cc1[nH]c2sc3cc(-c4ccc(C(F)(F)F)cc4F)ccc3c2c(=O)c1Cl [Example 1, 3-chloro-7-(2-fluoro-4-(trifluoromethyl)phenyl)-2-methylbenzo[4,5] thieno[2,3-b]pyridin-4(1H)-one]
IC50 [1]: 1.46 nM
IC50 [2]: 3300 nM
Tox window selectivity index [2]: 300-600
IC50 [3]: 4.6 nM
IC50 (P. falciparum 3D7A; strain 3D7A): 0.012 ± 0.002 µM
Pf IC50 Ratio vs Pf IC50 3D7, Dd2 (P. falciparum Dd2): 1
Pf IC50 Ratio vs Pf IC50 3D7, FCR3 (P. falciparum FCR3): 1
Pf IC50 Ratio vs Pf IC50 3D7, Tm90C2A (P. falciparum Tm90C2A): 1
Pf IC50 Ratio vs Pf IC50 3D7, Tm90C2B (P. falciparum Tm90C2B): 7

Cc1[nH]c2sc3cc(-c4ccc(CO)cc4)ccc3c2c(=O)c1Cl [Example 6, 3-chloro-7-(4-(hydroxymethyl)phenyl)-2-methylbenzo[4,5]thieno[2,3-b]pyridin-4(1H)-one]
IC50 [1]: 0.946 nM
IC50 [2]: 5420 nM

C[C@H]1[C@H](OC(=O)CCC(=O)O)O[C@@H]2O[C@@]3(C)CC[C@H]4[C@H](C)CC[C@@H]1[C@@]24OO3 [Artesunate]
IC50 (P. falciparum 3D7A): 0.014 ± 0.0003 µM
Pf IC50 Ratio vs Pf IC50 3D7, Dd2 (P. falciparum Dd2): 1
Pf IC50 Ratio vs Pf IC50 3D7, FCR3 (P. falciparum FCR3): 1
Pf IC50 Ratio vs Pf IC50 3D7, Tm90C2A (P. falciparum Tm90C2A): 1
Pf IC50 Ratio vs Pf IC50 3D7, Tm90C2B (P. falciparum Tm90C2B): 1

Cc1[nH]c2sc3cc(-c4ccc(C(F)(F)F)cc4C(F)(F)F)ccc3c2c(=O)c1Cl [Example 5, 7-(2,4-bis(trifluoromethyl)phenyl)-3-chloro-2-methylbenzo[4,5]thieno[2,3-b]pyridin-4(1H)-one]
IC50 [1]: 0.433 nM
IC50 [2]: 2420 nM
Tox window selectivity index [2]: 2200
IC50 [3]: 1.1 nM

OC(c1cc(C(F)(F)F)nc2c(C(F)(F)F)cccc12)C1CCCCN1 (centres unmarked) [Mefloquine]
IC50 (P. falciparum 3D7A; strain 3D7A): 0.037 ± 0.001 µM
Pf IC50 Ratio vs Pf IC50 3D7, Dd2 (P. falciparum Dd2): 1
Pf IC50 Ratio vs Pf IC50 3D7, FCR3 (P. falciparum FCR3): 1
Pf IC50 Ratio vs Pf IC50 3D7, Tm90C2A (P. falciparum Tm90C2A): 0.3
Pf IC50 Ratio vs Pf IC50 3D7, Tm90C2B (P. falciparum Tm90C2B): 1

CCCCN(CCCC)CC(O)c1cc(Cl)cc2c1-c1ccc(Cl)cc1/C2=C/c1ccc(Cl)cc1 (centres unmarked) [Lumefantrine]
IC50 (P. falciparum 3D7A): 0.011 ± 0.004 µM
Pf IC50 Ratio vs Pf IC50 3D7, Dd2 (P. falciparum Dd2): 1
Pf IC50 Ratio vs Pf IC50 3D7, Tm90C2A (P. falciparum Tm90C2A): 0.1
Pf IC50 Ratio vs Pf IC50 3D7, Tm90C2B (P. falciparum Tm90C2B): 1

O=C1C(O)=C([C@H]2CC[C@H](c3ccc(Cl)cc3)CC2)C(=O)c2ccccc21 [Atovaquone]
IC50 (P. falciparum 3D7A; strain 3D7A): 0.001 ± 0.001 µM
Pf IC50 Ratio vs Pf IC50 3D7, Dd2 (P. falciparum Dd2): 2
Pf IC50 Ratio vs Pf IC50 3D7, FCR3 (P. falciparum FCR3): >100
Pf IC50 Ratio vs Pf IC50 3D7, Tm90C2A (P. falciparum Tm90C2A): 1
Pf IC50 Ratio vs Pf IC50 3D7, Tm90C2B (P. falciparum Tm90C2B): >250

Cc1[nH]c2sc3cc(-c4cc(C(F)(F)F)ccc4F)ccc3c2c(=O)c1Cl [Example 3, 3-chloro-7-(2-fluoro-5-(trifluoromethyl)phenyl)-2-methylbenzo[4,5]thieno[2,3-b]pyridin-4(1H)-one]
IC50 [1]: 31.6 nM
IC50 [2]: 1520 nM
Tox window selectivity index [2]: 500
IC50 [3, 4]: 1.8 nM
